Reference: PubChem BioAssay AID179 (DTP/NCI, 2004)
Calls of active or inactive are those of the source.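 Rule for the calls: active = compounds giving half or more protection of infected cells from virus-caused growth loss, again on retest; inactive = the rest.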 Where a SMILES comes first, the peptide text is derived from it. [ ]: non-standard residue; d: D form. pGlu = O=C1CC[CH](C(=O)O)N1

System: CEM cells HIV-1 protection, formazan growth assay
Test: NCI AIDS Antiviral Assay
Details: for IC50: measured here: growth of uninfected CEM cells
In short: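 CEM (human) cells, HIV-1 infected vs uninfected, 5-point dosing, formazan growth read-out. Retest threshold 50% protection.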

SMILES	EC50 [µM]	IC50 [µM]	outcome
Cc1cc(C)nc(NS(=O)(=O)c2ccc(Nc3c4ccccc4nc4ccc(C(=O)Nc5ccc(S(=O)(=O)N=C(N)N)cc5)cc34)cc2)n1	> 93.3	47.9	–
C=C1C(=O)OC2CC1(C)OCC2[C@H]1CCC2C3CC=C4CC=CC(=O)[C@]4(C)C3CC[C@@]21C (stereo partly specified)	> 155	3.31	–
COc1ccc(C(=O)/C=C/c2cccnc2)cc1OC	> 200	2.75	–
N#C/C(=C/c1cccc(Oc2ccccc2)c1)c1ccccc1	> 6.76	> 6.76	–
O=C1c2ccc([N+](=O)[O-])cc2C(=O)N1CC[P+](c1ccccc1)(c1ccccc1)c1ccccc1	> 200	> 200	–
COc1ccc(NC(=O)CC/C(CC(=O)C(C)(C)C)=N\NC(=O)C(N)=O)cc1	> 93.3	> 93.3	–
c1ccc(C2OC23CCCCC3)cc1 (stereo unspecified)	> 200	> 200	–
O=c1cc(CCl)nc2c3ncn(C4OC(CO)C(O)C4O)c3ncn12 (stereo unspecified)	–	–	inactive
Cc1cc2ncn(-c3nc4ccccc4nc3C(C#N)S(C)(=O)=O)c2cc1C (stereo unspecified)	> 646	57.5	–
CCOC(=O)/C=C1\C[C@H](NC(=O)OCc2ccccc2)C(=O)N1CC(=O)OCC	> 200	> 200	–
CC(C)(/C=N\O)NO	> 200	> 200	–
CC(NC(=O)C(Cc1cnc[nH]1)NC(=O)C1CCC(=O)N1)C(N)=O (stereo not drawn) ([pGlu]-His-Ala-NH2; configuration not given here)	> 200	> 200	–
O=c1oc2ccccc2[n+]([O-])c1-c1ccccc1	> 1050	> 1050	–
Cc1c(C#N)c2n(c1C)CCN2	> 1550	> 1550	–
Cc1cc(N(CCC#N)CCC#N)ccc1/C(N=Nc1cccc([N+](=O)[O-])c1)=N/NC(=O)c1cc(Cl)ccc1O	> 200	12	–
N#C/C(N)=C(\C#N)NC=NCc1ccccc1	> 200	> 200	–
COC1=C(OC)C(=O)C2=C(OCCCO2)C1=O	> 389	2	–
CCC(C)C(CC)C(=O)NC(N)=O (stereo unspecified)	> 200	> 200	–
Cc1cnc2c(ccc3c(C)c(C)c(C)nc32)c1C.Cc1cnc2c(ccc3c(C)c(C)c(C)nc32)c1C.O=C1OC(C(O)C[O-])C(O)=C1O.[Cu+]	> 25.1	1.29	–
Clc1ccc(-c2nc3ccc(C45CC6CC(CC(C6)C4)C5)cc3[nH]2)cc1	> 100	> 100	–
O=C1C2=C(Nc3cc([N+](=O)[O-])ccc3N2)OC1c1ccccc1 (stereo unspecified)	> 17	> 17	–
O=C1C=CC2(CCCCCCC2=O)CC1 (stereo unspecified)	–	–	inactive

SMILES	EC50 [µM]	IC50 [µM]	outcome
O=C1c2sc(-c3ccc(F)cc3)cc2-n2cccc21	> 200	120	–
COc1c(O)cc2oc(-c3ccc(O)c(O)c3)cc(=O)c2c1O	> 38	22.9	–
Clc1ccc(C=Nc2ccc(Oc3ccc(Cl)cc3)c(Cl)c2)cc1	> 200	33.1	–
COC1(OC)CC2OC1C1N=NN(C(=O)OC(C)(C)C)C21 (stereo unspecified)	> 33.1	> 33.1	–
CCOC(=O)Oc1ccc2[nH]c3c(C)cc(N)c(C)c3c2c1	> 93.3	39.8	–
CCOC(=O)CC[P+](c1ccccc1)(c1ccccc1)c1ccccc1	> 200	21.4	–
CC/C(Br)=C1\CC2c3c(c4ccccc4n3C)CC(C1=O)N2Cc1ccccc1 (stereo unspecified)	–	–	inactive
CC(C)OC1OC(CO)C(O)CC1n1cc(F)c(=O)[nH]c1=O (stereo unspecified)	> 200	24.5	–
S=c1n(-c2ccc(Cl)cc2)c2nc3ccccc3nc(/c2=N\Nc2cc(Cl)ccc2Cl)n1-c1ccc(Br)cc1	> 75.9	19.5	–
O=C1c2c(O)ccc(O)c2C(=O)c2c(NCCOCCO)ccc(NCCOCCO)c21	> 200	3.55	–
C=C(Cc1ccc2c(c1)OCO2)C(=C)Cc1ccc(O)cc1O	> 200	55	–
O=C1O/C(=C(/Br)c2ccc(Cl)c(Cl)c2)c2ccccc21	> 200	11.7	–
COc1cc(/C=C2\NC(=O)N(/C=C3\C(=O)Oc4ccccc4C3=O)C2=O)ccc1O	> 200	> 200	–
Nc1ccccc1[S][Sn]([c]1ccccc1)([c]1ccccc1)[c]1ccccc1	> 2	0.324	–
CC(C)C1CC2C(=O)N(c3ccccc3)C(=O)C2c2[nH]c3ccccc3c21 (stereo unspecified)	–	–	inactive
OCC(O)C1OC2CC1Nc1ccccc1N2 (stereo unspecified)	> 200	97.7	–
CN(CCO)c1cnn(CCO)c(=O)c1Cl	> 200	> 200	–
CNC(=O)NC(CCCCNC(=O)OCc1ccccc1)C(=O)OCc1ccccc1 (stereo unspecified)	> 83.2	39.8	–
Cn1cc(C(=O)c2ccccc2)cc(C(=O)c2ccccc2)c1=O	–	–	inactive
COc1ccc2nc(NC(=O)/C(C#N)=C/c3ccccc3)sc2c1	> 200	12	–
COc1ccc(-c2c3nc(c(-c4ccc(OC)cc4)c4[n-]c(c(-c5ccc(OC)cc5)c5nc(c(-c6ccc(OC)cc6)c6[n-]c2c2ccccc62)-c2ccccc2-5)c2ccccc42)-c2ccccc2-3)cc1.[Zn+2]	> 50.1	> 50.1	–
NC1CC2NC3CCCCC3NC2CC1N (stereo unspecified)	> 200	27.5	–

SMILES	EC50 [µM]	IC50 [µM]	outcome
CCOC(=O)c1cc2c(nc1NCc1ccc(OC)c(OC)c1)/C(=C/c1ccccc1)CCCC2	> 200	10.2	–
CCCCC(C(=O)NCCNC(=O)CCC(=O)N(C)O)C(=O)NCCNC(=O)CCC(=O)N(C)O	> 200	112	–
CCOC(=O)C1=C(SC)SC(C(=O)OCC)C2C=C(C)C=CN12 (stereo unspecified)	> 102	45.7	–
Cc1nnc(N)nc1/C=C\c1cccs1	> 200	5.5	–
c1ccc(NC[Si]23OCCN(CCO2)CCO3)cc1	–	–	inactive
CC(=O)C(=[N+]=[N-])C(=O)NCC#N	> 200	> 200	–
Cc1c(O)c(OC2OC(CO)C(O)C(O)C2O)cc2c1CC[C@@H]1C2(C)C(=O)C[C@]2(C)[C@@H]([C@@](C)(O)C(=O)CCC(C)(C)O)[C@H](O)C[C@@]12C (stereo partly specified)	> 200	> 200	–
CC(C)c1ncc([N+](=O)[O-])n1C	> 200	> 200	–
CC(=O)c1nc(C#N)c(N)o1	–	–	inactive
CN=C1CC2c3cc(OC)c(OC)cc3CCN2C2=C1C(=O)CC(C)(C)C2 (stereo unspecified)	> 200	> 200	–
O=C(O)C[C@H](Cl)[C@H](NC(=O)OCc1ccccc1)C(=O)O	–	–	inactive
Cc1cn(C2C=CC(O)CC2)c(=O)[nH]c1=O (stereo unspecified)	> 589	> 589	–
O=C(c1ccccc1)c1nc2ccc(Cl)cc2c2c1CCCO2	> 16.2	> 16.2	–
CC(C)(C)N=CN1C=Cc2nc3ccccc3cc2C1	–	–	inactive
Cc1nc(-n2[nH]c(C)c(CCO)c2=O)[nH]c(=O)c1CCO	–	–	inactive
N#Cc1nc(Nc2cccc3ccccc23)sc1N	> 135	60.3	–
COC(=O)C1=C2Nc3ccccc3[C@@]23CCN(Cc2ccccc2)[C@H]3CC1[C@H](O)CO (stereo partly specified)	> 148	83.2	–
C=CCOCCC(CC=C)C(=O)CC(=O)OC (stereo unspecified)	> 251	195	–
O=S(=O)(Oc1ccc2ccccc2c1-c1c(OS(=O)(=O)C(F)(F)F)ccc2ccccc12)C(F)(F)F	–	–	inactive
CC1=NS(=O)(=O)NC(C)=C1CC1=C(C)NS(=O)(=O)N=C1C	> 269	> 269	–
c1ccc(CC(c2ccccc2)N2CCOCC2)cc1 (stereo unspecified)	–	–	inactive
COc1ccc(C(=O)C(C(=O)CCC(=O)Nc2ccc(Cl)c(Cl)c2)c2ccc(OC)cc2)cc1 (stereo unspecified)	> 72.4	> 72.4	–

SMILES	EC50 [µM]	IC50 [µM]	outcome
Cc1cc2c(c(C(N)=O)c1C)-c1cc(Cl)cc(Cl)c1C2=O	> 22.4	> 22.4	–
O=C(CCl)N1CCC(CC2(c3cc4ccccc4[nH]3)OCCO2)CC1	> 200	5.01	–
CN1CCc2ccccc2C(C(=O)c2ccc3c(c2)OCO3)C1=O (stereo unspecified)	> 155	107	–
Nc1nc(Cl)cc(NCC2(CO)CC(O)C2)n1 (stereo unspecified)	> 200	> 200	–
CCOC(=O)c1ccc(N2N=C3C(=CC(=O)c4ccccc43)SCC2=O)cc1	> 47.9	19.5	–
O=c1ccn([C@@H]2C[C@@H]2CO)c(=O)[nH]1	–	–	inactive
Cc1c(Cc2ccccc2)n(C(C)OCCN2C(=O)C=CC2=O)c(=O)[nH]c1=O (stereo unspecified)	> 200	9.77	–
OCC1CC2c3[nH]c4ccccc4c3CCN2C1 (stereo unspecified)	> 282	> 282	–
Cn1c(=O)c(S(C)=O)c(O)c2ccccc21 (stereo unspecified)	> 200	> 200	–
COc1ccc(C(=O)/C=C/c2ccc(OCCCOc3ccc(/C=C/C(=O)c4ccc(OC)c(OC)c4)cc3)cc2)cc1OC	> 200	> 200	–
CNc1ccccc1S(=O)(=O)c1ccccc1C(F)(F)F	> 200	17	–
Cc1ccc(/C(O)=C/C(=O)C(=O)NN=C(c2ccccc2)c2ccccc2)cc1	> 200	107	–
ClCc1ccc2ccc3ccc(CCl)nc3c2n1	> 200	1.51	–
C=C(/C=C/C=C(\CO)CCC=C(C)C)[C@H]1CCC2([C@H](CCCO)/C(=C(/C)C=O)CC[C@]2(C)O)[C@H]1O (stereo partly specified)	> 263	195	–
OCC(O)CC[CH2][Sn]([Br])([c]1ccccc1)[c]1ccccc1 (stereo unspecified)	–	–	inactive
Clc1cc2ncn(C3CCCO3)c2cc1Cl (stereo unspecified)	> 200	61.7	–
O=C1[C@@H]2CC(O)[C@@H]3C(=O)[C@@H]4CC(O)[C@H]1[C@@H]4[C@H]23 (stereo partly specified)	> 1120	> 1120	–
c1ccc(C2SCc3nc4ccccc4n32)cc1 (stereo unspecified)	> 141	35.5	–
NC(N)=NS(=O)(=O)c1ccc(NCc2cccc3c(=O)c4ccc(Cl)cc4oc23)cc1	> 25.1	2.19	–
[N-]=[N+]=CC(=O)OC1CCc2ccccc21 (stereo unspecified)	> 200	> 200	–
C=C1C[C@@H]2C[C@@H](C)CC(O)[C@]2(CCCNC(=O)CCOCc2ccccc2)C1O (stereo partly specified)	–	–	inactive
Cc1nc2ccccc2c(=O)n1NC(=O)c1ccc(N)cc1	> 200	> 200	–
